Data reported in the NIST ThermoML archive (doi:10.1021/je020131a).

Assay: xn = mol fraction of the nth substance listed
Details: 101.3 kPa, Liquid, Falling or rolling sphere viscometry

C1CCCCC1 [cyclohexane] + COC(=O)OC
x2 = 0
Details | viscosity [mPa·s]
293.15 K | 0.976
298.15 K | 0.894
303.15 K | 0.813
313.15 K | 0.697

CCCCCC [hexane] + COC(=O)OC
x2 = 0
Details | viscosity [mPa·s]
293.15 K | 0.313
298.15 K | 0.301
303.15 K | 0.282
313.15 K | 0.258

CCOC(=O)OCC [diethyl carbonate] + C1CCCCC1
Details | viscosity [mPa·s]
293.15 K, x1 = 0.0501 | 0.906
293.15 K, x1 = 0.0992 | 0.85
293.15 K, x1 = 0.1969 | 0.78
293.15 K, x1 = 0.2923 | 0.741
293.15 K, x1 = 0.4023 | 0.72
293.15 K, x1 = 0.502 | 0.712
293.15 K, x1 = 0.5984 | 0.718
293.15 K, x1 = 0.6977 | 0.728
293.15 K, x1 = 0.808 | 0.742
293.15 K, x1 = 0.9037 | 0.761
293.15 K, x1 = 0.9511 | 0.776
293.15 K, x1 = 1 | 0.795
298.15 K, x1 = 0.0531 | 0.832
298.15 K, x1 = 0.094 | 0.792
298.15 K, x1 = 0.1931 | 0.725
298.15 K, x1 = 0.2865 | 0.691
298.15 K, x1 = 0.3821 | 0.676
298.15 K, x1 = 0.4802 | 0.674
298.15 K, x1 = 0.6454 | 0.685
298.15 K, x1 = 0.6801 | 0.689
298.15 K, x1 = 0.7828 | 0.701
298.15 K, x1 = 0.8852 | 0.719
298.15 K, x1 = 0.9177 | 0.726
298.15 K, x1 = 1 | 0.749
303.15 K, x1 = 0.0497 | 0.76
303.15 K, x1 = 0.1018 | 0.717
303.15 K, x1 = 0.1958 | 0.665
303.15 K, x1 = 0.293 | 0.637
303.15 K, x1 = 0.3922 | 0.628
303.15 K, x1 = 0.4767 | 0.626
303.15 K, x1 = 0.5943 | 0.635
303.15 K, x1 = 0.6778 | 0.643
303.15 K, x1 = 0.7897 | 0.657
303.15 K, x1 = 0.8649 | 0.671
303.15 K, x1 = 0.94 | 0.684
303.15 K, x1 = 1 | 0.699
313.15 K, x1 = 0.0511 | 0.659
313.15 K, x1 = 0.0983 | 0.632
313.15 K, x1 = 0.2003 | 0.594
313.15 K, x1 = 0.3002 | 0.572
313.15 K, x1 = 0.3963 | 0.56
313.15 K, x1 = 0.4953 | 0.563
313.15 K, x1 = 0.5914 | 0.568
313.15 K, x1 = 0.7001 | 0.576
313.15 K, x1 = 0.8098 | 0.589
313.15 K, x1 = 0.9014 | 0.603
313.15 K, x1 = 0.9494 | 0.613
313.15 K, x1 = 1 | 0.623

CCOC(=O)OCC [diethyl carbonate] + CCCCCC
Details | viscosity [mPa·s]
293.15 K, x1 = 0.0576 | 0.318
293.15 K, x1 = 0.1106 | 0.326
293.15 K, x1 = 0.2219 | 0.353
293.15 K, x1 = 0.3358 | 0.388
293.15 K, x1 = 0.4303 | 0.422
293.15 K, x1 = 0.5384 | 0.471
293.15 K, x1 = 0.6357 | 0.524
293.15 K, x1 = 0.7334 | 0.588
293.15 K, x1 = 0.8246 | 0.652
293.15 K, x1 = 0.9171 | 0.721
293.15 K, x1 = 0.9589 | 0.757
293.15 K, x1 = 1 | 0.795
298.15 K, x1 = 0.0586 | 0.318
298.15 K, x1 = 0.1024 | 0.323
298.15 K, x1 = 0.2106 | 0.347
298.15 K, x1 = 0.305 | 0.37
298.15 K, x1 = 0.3592 | 0.389
298.15 K, x1 = 0.4259 | 0.412
298.15 K, x1 = 0.5719 | 0.475
298.15 K, x1 = 0.7051 | 0.546
298.15 K, x1 = 0.7965 | 0.605
298.15 K, x1 = 0.8894 | 0.67
298.15 K, x1 = 0.9095 | 0.688
298.15 K, x1 = 0.9794 | 0.737
298.15 K, x1 = 1 | 0.749
303.15 K, x1 = 0.0583 | 0.292
303.15 K, x1 = 0.0941 | 0.299
303.15 K, x1 = 0.1925 | 0.324
303.15 K, x1 = 0.2897 | 0.347
303.15 K, x1 = 0.3927 | 0.378
303.15 K, x1 = 0.5087 | 0.42
303.15 K, x1 = 0.6072 | 0.463
303.15 K, x1 = 0.7059 | 0.512
303.15 K, x1 = 0.8002 | 0.568
303.15 K, x1 = 0.8947 | 0.628
303.15 K, x1 = 0.9532 | 0.672
303.15 K, x1 = 1 | 0.699
313.15 K, x1 = 0.0502 | 0.264
313.15 K, x1 = 0.1001 | 0.278
313.15 K, x1 = 0.2001 | 0.295
313.15 K, x1 = 0.3008 | 0.318
313.15 K, x1 = 0.4021 | 0.344
313.15 K, x1 = 0.4972 | 0.371
313.15 K, x1 = 0.5992 | 0.41
313.15 K, x1 = 0.7005 | 0.454
313.15 K, x1 = 0.8096 | 0.509
313.15 K, x1 = 0.898 | 0.558
313.15 K, x1 = 0.9671 | 0.599
313.15 K, x1 = 1 | 0.623

CCCCCCCC [octane] + CCOC(=O)OCC
x2 = 0
Details | viscosity [mPa·s]
293.15 K | 0.545
298.15 K | 0.513
303.15 K | 0.484
313.15 K | 0.434

COC(=O)OC [dimethyl carbonate] + CCCCCCC
Details | viscosity [mPa·s]
293.15 K, x1 = 0.05 | 0.407
293.15 K, x1 = 0.094 | 0.405
293.15 K, x1 = 0.2039 | 0.407
293.15 K, x1 = 0.324 | 0.413
293.15 K, x1 = 0.4062 | 0.422
293.15 K, x1 = 0.5059 | 0.441
293.15 K, x1 = 0.6099 | 0.462
293.15 K, x1 = 0.6987 | 0.488
293.15 K, x1 = 0.8086 | 0.527
293.15 K, x1 = 0.9029 | 0.567
293.15 K, x1 = 0.9504 | 0.594
293.15 K, x1 = 1 | 0.626
298.15 K, x1 = 0.0594 | 0.383
298.15 K, x1 = 0.1204 | 0.384
298.15 K, x1 = 0.2132 | 0.385
298.15 K, x1 = 0.3135 | 0.388
298.15 K, x1 = 0.4018 | 0.397
298.15 K, x1 = 0.4716 | 0.406
298.15 K, x1 = 0.6051 | 0.43
298.15 K, x1 = 0.6946 | 0.452
298.15 K, x1 = 0.8031 | 0.489
298.15 K, x1 = 0.902 | 0.528
298.15 K, x1 = 0.9477 | 0.554
298.15 K, x1 = 1 | 0.585
303.15 K, x1 = 0.0586 | 0.37
303.15 K, x1 = 0.0873 | 0.367
303.15 K, x1 = 0.1996 | 0.368
303.15 K, x1 = 0.299 | 0.375
303.15 K, x1 = 0.4009 | 0.388
303.15 K, x1 = 0.5081 | 0.403
303.15 K, x1 = 0.6069 | 0.426
303.15 K, x1 = 0.6979 | 0.454
303.15 K, x1 = 0.8051 | 0.495
303.15 K, x1 = 0.9069 | 0.518
303.15 K, x1 = 0.9638 | 0.518
303.15 K, x1 = 1 | 0.536
313.15 K, x1 = 0.0649 | 0.33
313.15 K, x1 = 0.1157 | 0.328
313.15 K, x1 = 0.3432 | 0.334
313.15 K, x1 = 0.4378 | 0.341
313.15 K, x1 = 0.5458 | 0.355
313.15 K, x1 = 0.6259 | 0.37
313.15 K, x1 = 0.7191 | 0.393
313.15 K, x1 = 0.8128 | 0.416
313.15 K, x1 = 0.8798 | 0.443
313.15 K, x1 = 0.9536 | 0.475
313.15 K, x1 = 0.9822 | 0.485
313.15 K, x1 = 1 | 0.494
